BindingDB's records for doi:10.1074/jbc.M113.480210 (University of Copenhagen, 2013)

Key:
Assay in all cases: Two-electrode Voltage Clamp Electrophysiology
Settings in all cases: pH 7.4; 25 °C
[1] = molecular target: Glutamate receptor ionotropic, NMDA 2A (Rat, UniProt Q00959+Q62683)
Protocol: (§1) Two-electrode voltage clamp (TEVC) recordings were performed on Xenopus oocytes at room temperature 3-6 days postinjection using an OC-725C TEVC amplifier (Warner Instruments, Hamden, CT). […] Voltage and current electrodes were filled with 0.3 and 3 M KCl, respectively. During recordings, oocytes were placed in a recording chamber and perfused with the extracellular recording solution comprised of 90 mM NaCl, 1 mM KCl, 10 mM HEPES, 0.5 mM BaCl2, and 0.01 mM EDTA (pH 7.4 with NaOH). Current responses were recorded at a holding potential of -40 and -60 mV for GluN1/N2 and GluN1/N3 receptors, respectively. Compounds were dissolved in extracellular recording solution and applied to the oocyte by gravity-driven perfusion using a computer-controlled 8-modular valve positioner (Digital MVP, Hamilton, Reno, NV).

[2] = molecular target: Glutamate receptor ionotropic, NMDA 2C (Rat, UniProt Q00961+Q62683)
Protocol: as §1

[3] = molecular target: Glutamate receptor ionotropic, NMDA 2D (Rat, UniProt Q62645+Q62683)
Protocol: as §1

Glutamate receptor 1 = Glutamate receptor 1 (Rattus norvegicus, UniProt P19490)
Protocol: as §1

[4] = molecular target: Glutamate receptor ionotropic, NMDA 2B (Rat, UniProt Q00960+Q62683)
Protocol: as §1

[5] = molecular target: Glutamate receptor ionotropic, NMDA 1 [F484A,T518L]/3B (Rattus norvegicus, UniProt P35439+Q8VHN2, F484A/T518L)
Protocol: as §1

[6] = molecular target: Glutamate receptor ionotropic, NMDA 1 [F484A,T518L]/3A (Rattus norvegicus, UniProt P35439+Q9R1M7, F484A/T518L)
Protocol: as §1

Chain of Glutamate receptor ionotropic, NMDA 2A (Q00959 whole entry, other chains not shown, the tested form may be a part): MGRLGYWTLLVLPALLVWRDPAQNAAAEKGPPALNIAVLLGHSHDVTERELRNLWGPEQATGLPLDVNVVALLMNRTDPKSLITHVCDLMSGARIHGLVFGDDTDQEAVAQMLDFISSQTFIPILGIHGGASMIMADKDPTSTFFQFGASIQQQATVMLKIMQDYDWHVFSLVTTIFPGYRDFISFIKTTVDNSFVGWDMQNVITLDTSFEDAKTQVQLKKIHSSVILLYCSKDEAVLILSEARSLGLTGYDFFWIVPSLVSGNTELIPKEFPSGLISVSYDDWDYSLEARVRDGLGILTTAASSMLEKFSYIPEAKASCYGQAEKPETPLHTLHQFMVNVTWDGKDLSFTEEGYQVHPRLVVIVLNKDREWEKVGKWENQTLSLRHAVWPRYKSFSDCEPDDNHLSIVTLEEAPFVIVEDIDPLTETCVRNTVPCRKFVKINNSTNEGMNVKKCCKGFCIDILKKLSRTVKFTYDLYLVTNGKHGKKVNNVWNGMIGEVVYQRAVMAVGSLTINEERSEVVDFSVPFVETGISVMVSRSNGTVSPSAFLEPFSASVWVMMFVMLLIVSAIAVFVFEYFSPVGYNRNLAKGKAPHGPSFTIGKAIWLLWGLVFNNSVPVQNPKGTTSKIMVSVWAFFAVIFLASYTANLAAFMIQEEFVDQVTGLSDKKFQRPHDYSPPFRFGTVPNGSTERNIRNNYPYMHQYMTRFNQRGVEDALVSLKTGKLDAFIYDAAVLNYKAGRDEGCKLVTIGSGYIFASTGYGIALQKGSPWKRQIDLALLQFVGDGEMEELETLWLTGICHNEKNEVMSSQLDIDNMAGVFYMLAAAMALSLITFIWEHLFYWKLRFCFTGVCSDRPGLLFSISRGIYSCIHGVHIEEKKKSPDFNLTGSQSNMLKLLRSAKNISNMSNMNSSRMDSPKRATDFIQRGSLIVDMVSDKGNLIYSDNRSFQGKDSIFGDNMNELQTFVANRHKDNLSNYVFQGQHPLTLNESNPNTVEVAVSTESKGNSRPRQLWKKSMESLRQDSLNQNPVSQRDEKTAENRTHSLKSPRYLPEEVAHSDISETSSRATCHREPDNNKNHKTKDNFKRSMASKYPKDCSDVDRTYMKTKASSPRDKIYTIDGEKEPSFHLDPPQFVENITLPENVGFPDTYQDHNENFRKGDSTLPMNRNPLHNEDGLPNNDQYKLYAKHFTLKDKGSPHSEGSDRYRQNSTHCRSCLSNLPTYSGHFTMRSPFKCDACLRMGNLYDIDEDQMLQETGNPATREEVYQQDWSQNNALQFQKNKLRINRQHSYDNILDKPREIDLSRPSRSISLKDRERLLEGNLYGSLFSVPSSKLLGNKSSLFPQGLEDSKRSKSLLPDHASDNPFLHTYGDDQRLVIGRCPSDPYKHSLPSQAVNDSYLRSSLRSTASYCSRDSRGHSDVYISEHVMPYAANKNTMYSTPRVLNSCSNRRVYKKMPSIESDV
Chain of Glutamate receptor ionotropic, NMDA 1 [F484A,T518L]/3A (Q9R1M7 24-1135 limits assumed, other chains not shown): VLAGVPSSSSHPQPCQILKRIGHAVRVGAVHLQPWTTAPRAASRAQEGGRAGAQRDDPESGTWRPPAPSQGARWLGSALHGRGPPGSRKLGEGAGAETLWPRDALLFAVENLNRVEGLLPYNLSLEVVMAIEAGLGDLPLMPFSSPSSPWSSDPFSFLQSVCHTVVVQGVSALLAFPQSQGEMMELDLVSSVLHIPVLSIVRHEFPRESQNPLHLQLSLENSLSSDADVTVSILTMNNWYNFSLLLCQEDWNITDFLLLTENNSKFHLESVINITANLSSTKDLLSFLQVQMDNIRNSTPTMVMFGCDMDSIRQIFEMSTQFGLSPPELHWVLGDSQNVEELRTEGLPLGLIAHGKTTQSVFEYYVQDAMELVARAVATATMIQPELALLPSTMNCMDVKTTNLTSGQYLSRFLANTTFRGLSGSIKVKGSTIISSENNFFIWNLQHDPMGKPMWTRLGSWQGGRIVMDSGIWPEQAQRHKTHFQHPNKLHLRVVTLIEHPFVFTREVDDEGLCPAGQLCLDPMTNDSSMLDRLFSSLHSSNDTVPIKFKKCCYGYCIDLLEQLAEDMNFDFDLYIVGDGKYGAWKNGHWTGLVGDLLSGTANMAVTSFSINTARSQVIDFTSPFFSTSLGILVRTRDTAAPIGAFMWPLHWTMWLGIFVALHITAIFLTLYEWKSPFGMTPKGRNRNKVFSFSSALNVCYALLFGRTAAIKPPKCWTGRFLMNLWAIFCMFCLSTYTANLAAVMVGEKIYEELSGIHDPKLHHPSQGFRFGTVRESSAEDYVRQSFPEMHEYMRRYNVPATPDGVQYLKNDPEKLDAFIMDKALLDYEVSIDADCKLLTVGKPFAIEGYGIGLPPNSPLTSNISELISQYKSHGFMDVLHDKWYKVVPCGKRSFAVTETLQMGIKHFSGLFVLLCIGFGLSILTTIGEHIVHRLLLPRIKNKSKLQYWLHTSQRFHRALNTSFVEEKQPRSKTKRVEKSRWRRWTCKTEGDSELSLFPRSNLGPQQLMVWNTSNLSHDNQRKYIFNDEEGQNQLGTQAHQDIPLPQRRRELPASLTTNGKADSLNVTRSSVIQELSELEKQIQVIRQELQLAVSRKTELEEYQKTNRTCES
Chain of Glutamate receptor 1 (P19490 whole entry): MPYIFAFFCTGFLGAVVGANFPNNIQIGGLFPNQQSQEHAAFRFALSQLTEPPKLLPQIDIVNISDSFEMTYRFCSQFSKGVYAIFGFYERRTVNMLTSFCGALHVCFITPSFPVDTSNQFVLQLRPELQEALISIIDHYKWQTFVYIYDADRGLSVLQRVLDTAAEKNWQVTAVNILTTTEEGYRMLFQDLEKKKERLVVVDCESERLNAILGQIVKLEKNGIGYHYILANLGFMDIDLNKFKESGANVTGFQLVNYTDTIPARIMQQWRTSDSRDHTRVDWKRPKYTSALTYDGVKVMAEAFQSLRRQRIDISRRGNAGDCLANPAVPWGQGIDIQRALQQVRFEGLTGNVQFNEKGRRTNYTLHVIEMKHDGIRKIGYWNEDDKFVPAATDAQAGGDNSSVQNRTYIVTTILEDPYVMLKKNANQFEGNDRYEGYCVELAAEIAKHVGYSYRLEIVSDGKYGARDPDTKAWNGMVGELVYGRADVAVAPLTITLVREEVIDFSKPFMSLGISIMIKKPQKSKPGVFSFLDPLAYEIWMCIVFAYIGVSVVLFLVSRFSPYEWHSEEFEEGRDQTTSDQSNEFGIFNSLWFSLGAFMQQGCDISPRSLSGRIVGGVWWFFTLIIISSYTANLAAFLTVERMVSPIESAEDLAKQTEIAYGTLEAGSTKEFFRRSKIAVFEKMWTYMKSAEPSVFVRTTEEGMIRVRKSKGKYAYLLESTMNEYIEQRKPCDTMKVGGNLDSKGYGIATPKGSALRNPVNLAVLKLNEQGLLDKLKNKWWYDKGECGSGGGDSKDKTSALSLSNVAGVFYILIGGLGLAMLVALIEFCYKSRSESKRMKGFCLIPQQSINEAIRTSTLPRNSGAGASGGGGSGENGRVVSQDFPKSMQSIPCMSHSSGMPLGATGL
Chain of Glutamate receptor ionotropic, NMDA 1 [F484A,T518L]/3B (Q8VHN2 25-1002 limits assumed, other chains not shown): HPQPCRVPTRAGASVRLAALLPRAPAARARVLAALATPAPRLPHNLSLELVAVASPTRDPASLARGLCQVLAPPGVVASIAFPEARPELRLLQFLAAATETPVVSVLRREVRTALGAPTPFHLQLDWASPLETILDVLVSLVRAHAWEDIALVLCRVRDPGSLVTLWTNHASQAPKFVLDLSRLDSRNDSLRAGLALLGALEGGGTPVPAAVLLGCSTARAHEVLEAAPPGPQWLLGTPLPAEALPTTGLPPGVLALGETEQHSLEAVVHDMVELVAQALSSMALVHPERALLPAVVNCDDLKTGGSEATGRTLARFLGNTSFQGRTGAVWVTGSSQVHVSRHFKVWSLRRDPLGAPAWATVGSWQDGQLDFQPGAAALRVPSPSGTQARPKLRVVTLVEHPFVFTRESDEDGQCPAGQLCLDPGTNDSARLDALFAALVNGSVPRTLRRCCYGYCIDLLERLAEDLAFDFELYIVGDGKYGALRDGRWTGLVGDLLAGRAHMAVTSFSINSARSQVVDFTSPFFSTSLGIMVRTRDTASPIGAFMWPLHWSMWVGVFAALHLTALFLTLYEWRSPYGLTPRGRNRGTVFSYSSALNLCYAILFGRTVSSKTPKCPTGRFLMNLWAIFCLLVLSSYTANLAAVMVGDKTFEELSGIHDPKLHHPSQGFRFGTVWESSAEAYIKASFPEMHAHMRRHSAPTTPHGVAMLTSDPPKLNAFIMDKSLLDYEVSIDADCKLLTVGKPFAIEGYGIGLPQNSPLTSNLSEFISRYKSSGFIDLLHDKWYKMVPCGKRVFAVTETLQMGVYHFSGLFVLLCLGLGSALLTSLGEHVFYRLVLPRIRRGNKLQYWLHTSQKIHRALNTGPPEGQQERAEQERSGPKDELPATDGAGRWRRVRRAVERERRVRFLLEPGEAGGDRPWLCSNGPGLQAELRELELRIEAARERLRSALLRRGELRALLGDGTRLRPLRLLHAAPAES

IC50 [1]	Ki [1]	Ki [2]	Ki [3]	IC50 (Glutamate receptor 1)	Ki (Glutamate receptor 1)	Ki [4]	IC50 [5]	Ki [5]	IC50 [6]	Ki [6]	SMILES
770 nM	560 nM	> 800 nM	> 300 nM	> 300000 nM	> 180000 nM	> 1300 nM	–	–	–	–	O=c1[nH]c2ccccc2n2c(S)nnc12 [1-thioxo-1,2-dihydro-[1,2,4]triazolo[4,3-a]-quinoxalin-4(5H)-one]
92 nM	65 nM	–	–	–	–	–	> 300000 nM	> 150000 nM	97000 nM	35000 nM	O=C(O)c1cc(O)c2c(Cl)cc(Cl)cc2n1 [5,7-Dichlorokynurenic acid (5,7-DCKA)]
